One experiment has as its target T1, PD-1/PD-L1 (Homo sapiens, UniProt Q9NZQ7).
T1 construct: Recombinant human PD-L1 protein (19-238) with a Histag at the C-terminus; purchased AcroBiosystems PD1-H5229 (PD-L1); PD1-H5257 (PD-1)
As to the kind of experiment: PD-1/PD-L1 Homogeneous Time-Resolved Fluorescence (HTRF) Binding Assay. The following applies: PD-1/PD-L1 HTRF activity; 3 nM PD1, 10 nM PD-L1, 25° C. The method, boiled down:
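Human PD-L1 (19-238, His-tag) 10 nM and PD-1 (25-167, Fc-tag) 3 nM preincubated 40 min with inhibitor in PBS pH 7.4, 0.05% Tween-20, 0.1% BSA, 1% DMSO, 25 °C. Eu-anti-human IgG (1 nM) and anti-His-APC (20 nM) added, 60 min, 665/620 nm ratio; IC50 from percent control activity versus log concentration.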

For the next experiment, the system named is PDL1. As to the kind of experiment: PDL1 Jurkat-NFAT Reporter Assay. The following applies: Homo sapiens; Hep3B-OS8-hPDL1 with Jurkat-NFAT-PD1 cells, 6 hours, luciferase. It is filed as cell-based. On the procedure:
Example 109. PDL1 Jurkat-NFAT Reporter Assay
Preparation of Hep3B-OS8-hPDL1
(§1) 1. Hep3B-OS8-hPDL1 cells were cultured in 1640 medium supplemented with 10% fetal bovine serum, 1% penicillin and streptomycin, in which 100 μg/mL G418 and Hygromycin B were also added.
2. Cells were re-suspended with RPMI 1640 medium containing 10% FBS and the cell density was adjusted to 1.25×10^5 cells/mL.
3. Cells were seeded into 96-well flat bottom plate (1.25×10^4 cells/100 μL/well).
b. Compounds solutions preparation
4. Removed the medium from pre-plated Hep3B-OS8-PDL1 cells. Washed once with 200 μL Assay Medium.
5. Prepared the Compounds dilutions in RPMI 1640 medium with 10% FBS according to the Layout.
6. Added compounds into each well in a volume of 50 μL in 9 concentrations ([…])}. Keytruda will be included as positive control at the concentration of 5 μg/mL.
7. Incubated for 20-30 min at 37° C., 5% CO2.
c. Preparation of Jurkat-NFAT-PD1
8. Jurkat-NFAT-PD1 cells were cultured in 1640 medium supplemented with 10% fetal bovine serum, 1% penicillin and streptomycin, in which 1000 μg/mL Hygromycin B and […] puromycin were also added.
9. On the second day of assay, the cells were re-suspended with RPMI 1640 medium containing 10% FBS and the cell density was adjusted to 2.5×10^5 cells/mL.
10. […]

In experiment [1] the target is T2, extracellular domains of PD-L1 (Homo sapiens, UniProt Q9NZQ7).
T2 construct: specifically dimerize the extracellular domains of PD-L1
As to the kind of experiment: PD-L1 Dimerization. It is filed as biochemical. The following applies: PD-L1-Eu and PD-L1-A2, ratio 665 nm/615 nm. The protocol:
Example 108. PD-L1 Dimerization
Compounds were tested in biochemical protein-protein interaction assays to determine if they can specifically dimerize the extracellular domains of PD-L1. • (1) Diluted cpd 1:3 in succession in DMSO for each column for 10 samples • (2) Transferred 0.2 μL cpds solution in each row to 384 assay plate using Echo, each column containing 2 replicates • (3) Added 20 μL prepared mixture include PD-L1-Eu and PD-L1-A2 solution to assay plate, centrifuged at 1000 rpm for 1 min. • (4) Incubated at 25° C. for […]. • (5) Read fluorescence signal on Envision 2104 plate reader. • (6) Read the Ratio (665 nm/615 nm) signal on Envision. • (7) Analyzed the raw data using the equation (V. Data analysis)

The test system of experiment [2] is Hep3B-OS8-hPDL1 and T cells. Kind of experiment: Hep3B-OS8-hPDL1 and T Cells Co-Culture Assay (IFN-γ by ELISA). It is filed as cell-based. The following applies: T-cell, Hep3B-OS8-hPDL1 and human CD3+ T cells, 72 hours, read-out: Tumor and T Cell EC50. The protocol:
Example 110. Hep3B-OS8-hPDL1 and T Cells Co-Culture Assay
as §1
2. Hep3B-OS8-hPDL1 cells were harvested and treated with 10 μg/mL mitomycin C at 37° C. for 1.5 h, and the cells were then washed thoroughly with PBS for four times.
3. Cells were re-suspended with RPMI 1640 medium containing 10% FBS and the cell density was adjusted to 5×10^5 cells/mL.
4. Cells were seeded into 96-well flat bottom plate (2.5×10^4 cells/50 μL/well).
b. CD3+ T cells isolation (30 mL blood)
5. The human blood sample from an individual donor was diluted by the same volume of sterile PBS, for instance add 25 mL sterile PBS into 25 mL fresh whole blood and mix sufficiently by gentle shake.
6. Transferred 15 mL Lymphoprep medium into a new 50 mL centrifuge tube.
7. Added the diluted blood sample as soft as possible onto the surface of the Ficoll medium to make sure there is a clear dividing line between the two liquids, and the volume ratio between Ficoll and diluted blood (30 mL) is 1:2.
8. Moved the tube gently to centrifuge, at 1000×g, 25 min, 20° C., with the acceleration (5) and Min deceleration (0) settings during the centrifugation.
9. Four interfaces in all could be observed after the centrifugation, which are layers of plasma, mononuclear cells, the Ficoll medium and RBCs from top to bottom, and move the tube as gently as possible so as keep the four interfaces separated. Absorbed and transferred the second layer of mononuclear cells into another new sterile centrifuge tube carefully, and absorbed certain volume of plasma instead of the Ficoll medium if inevitable.
10. Added sterile PBS of the three times the volume of PBMCs in the tube with PBMC.
11. Washed the cells twice with 5-10 mL PBS before cell counting with cytometer. Centrifuge at 350×g, 10 min, 20° C. With the acceleration (5) and deceleration (5) settings during the centrifugation.
12. Resuspended the cells with recommended medium and adjust the density of the PBMCs to the final concentration of 5×10^7 cells/mL.
13. Isolated CD3+ T cells with EasySep™ Human T Cell Isolation Kit (STEMCELL Technologies #17951), and the cells were seeded into 96-well flat bottom plate (5×10^4 cells/100 μL/well). c. Compounds solutions preparation
14. Prepared the Compounds dilutions in RPMI 1640 medium with 10% FBS according to the Layout. 15. Added compounds into each well in a volume of 50 μL. {3 compounds (GLC01-258, GLC01-269, GLC01-465) in 7 concentrations (0.03, 0.1, 0.3, 1, 3, 10 and 30 μM) and 6 compounds (GLC01-411, GLC01-292, GLC01-445, GLC01-475, GLC01-470 and GLC01-468) in the same concentration (1 μM)}.
16. Keytruda was included as positive control, the concentration was 5 μg/mL. 17. Incubated for 72 hours at 37° C., 5% CO2.
18. Collected supernatant by centrifugation and measure IFN-γ by ELISA.
For orientation: An ELISA detects its analyte on a solid surface through an enzyme-linked reagent.

Structures can show the parent of a compound that is named as a salt. A value given as a limit tells only on which side of the number the result lay.

T2 sequence (Q9NZQ7 19-238 limits assumed): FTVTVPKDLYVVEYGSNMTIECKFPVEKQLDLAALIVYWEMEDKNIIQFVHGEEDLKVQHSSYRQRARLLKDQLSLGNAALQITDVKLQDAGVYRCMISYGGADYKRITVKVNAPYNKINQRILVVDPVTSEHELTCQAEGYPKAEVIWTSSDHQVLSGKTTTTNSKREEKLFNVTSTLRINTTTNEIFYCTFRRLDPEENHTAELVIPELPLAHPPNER
T1 sequence (Q9NZQ7 19-238): as the sequence (Q9NZQ7 19-238 limits assumed) above

On PD-1/PD-L1, `O=C1CC[C@@H](Cn2cnn3cc(-c4cccc(-c5cccc(-c6cc7c(=O)n(C[C@@H]8CCC(=O)N8)cnn7c6)c5Cl)c4Cl)cc3c2=O)N1` [Compound 1, 6,6′-(2,2′-dichloro-[1,1′-biphenyl]-3,3′-diyl)bis(3-((5-oxopyrrolidin-2-yl)methyl)pyrrolo[2,1-f][1,2,4]triazin-4(3H)-one)] yielded a half-maximal inhibitory concentration (IC50) of less than 10 nM. The same compound gave a concentration giving a half-maximal response (EC50) with PDL1 of less than 500 nM.
Consider `Cc1cn2nc(-c3cccc(-c4cccc(-c5cc6c(=O)n(C[C@@H]7CCCN7)c(C)cn6n5)c4Cl)c3Cl)cc2c(=O)n1C[C@@H]1CCCN1` [Compound 36, 2,2′-(2,2′-dichloro-[1,1′-biphenyl]-3,3′-diyl)bis(6-methyl-5-(((S)-pyrrolidin-2-yl)methyl)pyrazolo[1,5-a]pyrazin-4(5H)-one) dihydrochloride], for which the EC50 in experiment [1] and in experiment [2] was less than 50 nM each time. Further, the 50% inhibitory concentration (IC50) on PD-1/PD-L1 was less than 10 nM.
As for `Cc1cn2nc(-c3cccc(-c4cccc(-c5cc6c(=O)n(CCN7CC[C@H](C(=O)O)C7)c(C)cn6n5)c4Cl)c3Cl)cc2c(=O)n1CCN1CC[C@H](C(=O)O)C1` [Compound 47, (3S,3'S)-1,1′-(((2,2′-dichloro-[1,1′-biphenyl]-3,3′-diyl)bis(6-methyl-4-oxopyrazolo[1,5-a]pyrazine-2,5(4H)-diyl))bis(ethane-2,1-diyl))bis(pyrrolidine-3-carboxylic acid)], the figures for the 50% effective concentration (EC50) in experiment [1] and in experiment [2] were 50 to 100 nM and no less than 100 nM, respectively. Also, the IC50 at PD-1/PD-L1 is less than 10 nM.
With `Cc1cn2cc(-c3cccc(-c4cccc(-c5cc6c(=O)n(CCNCCO)c(C)cn6c5)c4Cl)c3Cl)cc2c(=O)n1CCNCCO` [Compound 51, 7,7′-(2,2′-dichloro-[1,1′-biphenyl]-3,3′-diyl)bis(2-(2-((2-hydroxyethyl)amino)ethyl)-3-methylpyrrolo[1,2-a]pyrazin-1(2H)-one)], the EC50 in experiment [1] and in experiment [2] was 50 to 100 nM in each case. On PD-1/PD-L1, this compound had a half-maximal inhibitory concentration (IC50) of less than 10 nM.
`Cc1cn2nc(-c3cccc(-c4cccc(-c5cc6c(=O)n(CCNCCO)c(C)cn6n5)c4Cl)c3Cl)cc2c(=O)n1CCNCCO` [Compound 52, 2,2′-(2,2′-dichloro-[1,1′-biphenyl]-3,3′-diyl)bis(5-(2-((2-hydroxyethyl)amino)ethyl)-6-methylpyrazolo[1,5-a]pyrazin-4(5H)-one)]: the EC50 is less than 50 nM in experiment [1] and 50 to 100 nM in experiment [2]. The same compound displayed an IC50 on PD-1/PD-L1 of less than 10 nM.
For `Cc1cn2cc(-c3cccc(-c4cccc(-c5cc6c(=O)n(CCN7CC[C@H](C(=O)O)C7)c(C)cn6c5)c4Cl)c3Cl)cc2c(=O)n1CCN1CC[C@H](C(=O)O)C1` [Compound 53, (3S,3'S)-1,1′-(((2,2′-dichloro-[1,1′-biphenyl]-3,3′-diyl)bis(3-methyl-1-oxopyrrolo[1,2-a]pyrazine-7,2(1H)-diyl))bis(ethane-2,1-diyl))bis(pyrrolidine-3-carboxylic acid)], the IC50 at PD-1/PD-L1 was less than 10 nM. The EC50 in experiment [2] was no less than 100 nM.
`Cc1cn2nc(-c3cccc(-c4cccc(-c5cc6c(=O)n(CCN[C@@H](CO)C(=O)O)c(C)cn6n5)c4Cl)c3Cl)cc2c(=O)n1CCN[C@@H](CO)C(=O)O` [Compound 57, (2S,2'S)-2,2′-((((2,2′-dichloro-[1,1′-biphenyl]-3,3′-diyl)bis(6-methyl-4-oxopyrazolo[1,5-a]pyrazine-2,5(4H)-diyl))bis(ethane-2,1-diyl))bis(azanediyl))bis(3-hydroxypropanoic acid)]: the EC50 in experiment [1] is 50 to 100 nM; in experiment [2], less than 50 nM. For the same compound, on PD-1/PD-L1, the IC50 was less than 10 nM.
As to `Cc1cn2cc(-c3cccc(-c4cccc(-c5cc6c(=O)n(CCN[C@@H](CO)C(=O)O)c(C)cn6c5)c4Cl)c3Cl)cc2c(=O)n1CCN[C@@H](CO)C(=O)O` [Compound 63, (2S,2'S)-2,2′-((((2,2′-dichloro-[1,1′-biphenyl]-3,3′-diyl)bis(3-methyl-1-oxopyrrolo[1,2-a]pyrazine-7,2(1H)-diyl))bis(ethane-2,1-diyl))bis(azanediyl))bis(3-hydroxypropanoic acid)], the EC50 in experiment [1] was 50 to 100 nM; in experiment [2], no less than 100 nM. Further, the IC50 at PD-1/PD-L1 is less than 10 nM.
Consider `Cn1c(C[C@@H]2CCCN2)nn2cc(-c3cccc(-c4cccc(-c5cc6c(=O)n(C)c(C[C@@H]7CCCN7)nn6c5)c4Cl)c3Cl)cc2c1=O` [Compound 76, 6,6′-(2,2′-dichloro-[1,1′-biphenyl]-3,3′-diyl)bis(3-methyl-2-(((S)-pyrrolidin-2-yl)methyl)pyrrolo[2,1-f][1,2,4]triazin-4(3H)-one)], for which the half-maximal effective concentration (EC50) in experiment [1] was less than 50 nM; in experiment [2] it was 50 to 100 nM. The IC50 on PD-1/PD-L1 lay in the range of 10 to 100 nM.
Consider `Cc1cn2nc(-c3cccc(-c4cccc(-c5cc6c(=O)n(CCNC7(C(=O)O)CC(O)C7)c(C)cn6n5)c4Cl)c3Cl)cc2c(=O)n1CCNC1(C(=O)O)CC(O)C1` (stereo not drawn) [Compound 85], for which the figures for the EC50 in experiment [1] and in experiment [2] were 50 to 100 nM and less than 50 nM, respectively. The 50% inhibitory concentration (IC50) on PD-1/PD-L1 lay in the range of 10 to 100 nM.
Regarding `Cc1cn2nc(-c3cccc(-c4cccc(-c5cc6c(=O)n(CCN7CC[C@H](O)[C@H]7C(=O)O)c(C)cn6n5)c4Cl)c3Cl)cc2c(=O)n1CCN1CC[C@H](O)[C@H]1C(=O)O` [Compound 89, (2S,2'S,3S,3'S)-1,1′-(((2,2′-dichloro-[1,1′-biphenyl]-3,3′-diyl)bis(6-methyl-4-oxopyrazolo[1,5-a]pyrazine-2,5(4H)-diyl))bis(ethane-2,1-diyl))bis(3-hydroxypyrrolidine-2-carboxylic acid)], the IC50 on PD-1/PD-L1 was 10 to 100 nM. The EC50 in experiment [2] is less than 50 nM.

As a reminder, the IC50 is the point on the concentration scale where inhibition reaches its midpoint. As a reminder, the EC50 is the concentration needed to bring the measured effect to its halfway point.

The values are drawn from US20260248783A1 (ASCLETIS BIOSCIENCE CO., LTD., priority 2021, published 2026).
